Experimental data from patent US11739098B2 (BRISTOL-MYERS SQUIBB COMPANY, priority 2017, dated 2023).
pIC50: −log10 of the molar value. Values belong to the molecule of their own block, whether it stands above or below them.

Columns and labels:
Type in all cases: cell-based
human TLR8 = molecular target: T1, human TLR8 (Homo sapiens, UniProt Q9NR97); assay: TLR8 inhibition reporter assay (HEK-Blue cells, SEAP reporter, R848 stimulation); settings: HEK-Blue cells overexpressing human TLR8, SEAP reporter, R848 15.9 μM
T1 construct: host or cells: HEK-Blue cells (HEK293-derived reporter line)
T1 sequence (Q9NR97 27-1041): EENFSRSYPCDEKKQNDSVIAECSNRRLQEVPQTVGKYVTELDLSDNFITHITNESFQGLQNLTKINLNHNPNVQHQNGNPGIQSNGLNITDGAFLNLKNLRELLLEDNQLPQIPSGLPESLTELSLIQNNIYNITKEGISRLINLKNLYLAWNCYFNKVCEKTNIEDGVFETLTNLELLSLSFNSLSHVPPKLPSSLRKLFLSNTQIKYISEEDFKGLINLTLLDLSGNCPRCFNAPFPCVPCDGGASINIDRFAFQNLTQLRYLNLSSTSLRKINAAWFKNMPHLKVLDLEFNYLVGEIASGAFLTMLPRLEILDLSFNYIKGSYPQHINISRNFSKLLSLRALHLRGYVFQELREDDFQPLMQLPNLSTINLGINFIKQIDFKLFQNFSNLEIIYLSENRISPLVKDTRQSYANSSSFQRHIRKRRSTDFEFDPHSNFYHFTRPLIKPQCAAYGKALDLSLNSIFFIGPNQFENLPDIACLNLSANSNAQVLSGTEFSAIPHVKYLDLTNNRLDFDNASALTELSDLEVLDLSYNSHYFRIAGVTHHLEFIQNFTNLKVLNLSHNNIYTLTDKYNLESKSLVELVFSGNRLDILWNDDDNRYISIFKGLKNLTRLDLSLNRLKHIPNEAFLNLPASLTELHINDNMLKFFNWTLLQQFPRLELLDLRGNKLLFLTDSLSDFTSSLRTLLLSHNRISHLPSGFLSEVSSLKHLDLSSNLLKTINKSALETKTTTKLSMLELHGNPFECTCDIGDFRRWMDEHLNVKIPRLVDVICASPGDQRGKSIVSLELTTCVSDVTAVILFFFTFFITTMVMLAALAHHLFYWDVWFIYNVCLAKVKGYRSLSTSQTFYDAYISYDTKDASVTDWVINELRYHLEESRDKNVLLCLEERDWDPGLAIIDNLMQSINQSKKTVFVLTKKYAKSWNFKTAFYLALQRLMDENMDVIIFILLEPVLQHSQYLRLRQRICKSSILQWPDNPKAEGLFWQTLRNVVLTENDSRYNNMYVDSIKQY
Method in brief: (§1)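 Cells seeded per well (15000 TLR7, 20,000 TLR8, 25,000 TLR9); compound added over 0.05 nM–50 μM for 30 min at room temperature; agonist added (TLR7 gardiquimod 7.5 μM, TLR8 R848 15.9 μM, TLR9 ODN2006 5 nM); 22 h at 37 °C; SEAP measured; percent inhibition calculated.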

human TLR9 = molecular target: T2, human TLR9 (Homo sapiens, UniProt Q9NR96); assay: TLR9 inhibition reporter assay (HEK-Blue cells, SEAP reporter, ODN2006 stimulation); settings: HEK-Blue cells overexpressing human TLR9, SEAP reporter, ODN2006 5 nM
T2 construct: host or cells: HEK-Blue cells (HEK293-derived reporter line)
T2 sequence (Q9NR96 26-1032): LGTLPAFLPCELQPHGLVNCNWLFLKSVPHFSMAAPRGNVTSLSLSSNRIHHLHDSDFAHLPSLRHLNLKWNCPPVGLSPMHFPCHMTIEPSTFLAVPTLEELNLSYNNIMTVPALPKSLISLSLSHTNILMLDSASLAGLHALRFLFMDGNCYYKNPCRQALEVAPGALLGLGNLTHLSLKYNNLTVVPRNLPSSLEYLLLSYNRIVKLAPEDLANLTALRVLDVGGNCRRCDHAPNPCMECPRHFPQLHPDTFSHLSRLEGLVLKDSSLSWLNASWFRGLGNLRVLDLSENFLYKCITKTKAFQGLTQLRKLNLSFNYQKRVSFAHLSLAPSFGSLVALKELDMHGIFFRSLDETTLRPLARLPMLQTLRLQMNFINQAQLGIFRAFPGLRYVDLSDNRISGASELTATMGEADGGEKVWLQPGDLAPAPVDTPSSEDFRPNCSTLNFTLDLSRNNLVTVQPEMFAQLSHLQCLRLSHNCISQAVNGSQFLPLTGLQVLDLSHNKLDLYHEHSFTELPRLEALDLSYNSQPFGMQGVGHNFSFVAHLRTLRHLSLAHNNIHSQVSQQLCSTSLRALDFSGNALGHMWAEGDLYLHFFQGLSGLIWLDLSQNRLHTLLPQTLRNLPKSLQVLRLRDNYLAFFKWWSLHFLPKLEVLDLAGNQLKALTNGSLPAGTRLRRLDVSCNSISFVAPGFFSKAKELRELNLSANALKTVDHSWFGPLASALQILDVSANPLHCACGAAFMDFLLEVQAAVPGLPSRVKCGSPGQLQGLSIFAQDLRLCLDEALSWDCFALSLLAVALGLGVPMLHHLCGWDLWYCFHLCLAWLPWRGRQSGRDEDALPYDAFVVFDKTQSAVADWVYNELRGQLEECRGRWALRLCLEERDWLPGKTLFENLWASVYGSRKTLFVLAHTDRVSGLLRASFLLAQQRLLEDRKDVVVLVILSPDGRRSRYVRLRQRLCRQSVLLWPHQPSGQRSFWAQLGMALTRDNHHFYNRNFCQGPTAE
Method in brief: as §1

human TLR7 = molecular target: T3, human TLR7 (Homo sapiens, UniProt Q9NYK1); assay: TLR7 inhibition reporter assay (HEK-Blue cells, SEAP reporter, gardiquimod stimulation); settings: HEK-Blue cells overexpressing human TLR7, SEAP reporter, gardiquimod 7.5 μM
T3 construct: host or cells: HEK-Blue cells (HEK293-derived reporter line)
T3 sequence (Q9NYK1 27-1049): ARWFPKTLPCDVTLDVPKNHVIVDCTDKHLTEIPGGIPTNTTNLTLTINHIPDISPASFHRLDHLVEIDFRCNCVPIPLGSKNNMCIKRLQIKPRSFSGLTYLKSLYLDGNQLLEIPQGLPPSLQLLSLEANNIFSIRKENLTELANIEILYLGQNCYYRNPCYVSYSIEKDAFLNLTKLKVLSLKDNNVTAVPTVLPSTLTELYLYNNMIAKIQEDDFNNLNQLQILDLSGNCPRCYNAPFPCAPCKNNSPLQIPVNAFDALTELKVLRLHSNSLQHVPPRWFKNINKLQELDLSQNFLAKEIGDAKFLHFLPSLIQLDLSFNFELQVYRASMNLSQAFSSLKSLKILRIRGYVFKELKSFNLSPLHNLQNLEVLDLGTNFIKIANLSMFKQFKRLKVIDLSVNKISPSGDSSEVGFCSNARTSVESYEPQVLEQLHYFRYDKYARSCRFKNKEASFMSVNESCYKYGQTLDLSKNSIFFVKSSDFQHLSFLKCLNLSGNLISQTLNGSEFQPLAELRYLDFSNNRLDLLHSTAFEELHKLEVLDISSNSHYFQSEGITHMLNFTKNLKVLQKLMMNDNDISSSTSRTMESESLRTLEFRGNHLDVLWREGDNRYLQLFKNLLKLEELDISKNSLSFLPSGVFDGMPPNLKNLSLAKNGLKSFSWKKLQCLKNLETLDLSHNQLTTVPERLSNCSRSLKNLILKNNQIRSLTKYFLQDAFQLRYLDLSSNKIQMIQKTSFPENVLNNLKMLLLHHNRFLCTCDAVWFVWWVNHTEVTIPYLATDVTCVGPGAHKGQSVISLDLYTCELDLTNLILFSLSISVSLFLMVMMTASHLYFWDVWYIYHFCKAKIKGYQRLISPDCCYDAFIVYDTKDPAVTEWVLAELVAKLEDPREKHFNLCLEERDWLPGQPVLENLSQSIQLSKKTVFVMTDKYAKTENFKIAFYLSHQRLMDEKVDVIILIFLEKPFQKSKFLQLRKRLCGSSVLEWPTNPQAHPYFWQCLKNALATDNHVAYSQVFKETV
Method in brief: as §1

Compound: CC(C)c1c(-c2ccc3nc(N)cn3c2)[nH]c2ccc(C3CCNCC3)cc12 [Example 116, 6-(3-isopropyl-5-(piperidin-4-yl)-1H-indol-2-yl)imidazo[1,2-a]pyridin-2-amine]
- pIC50 (human TLR8): 6.00 to 7.00
- pIC50 (human TLR9): 4.30 to 6.00
- pIC50 (human TLR7): 6.00 to 7.00

Compound: CNCCN1CCC(c2ccc3[nH]c(-c4cncc5ccccc45)c(C)c3c2)CC1 [Example 665, 2-(4-(2-(isoquinolin-4-yl)-3-methyl-1H-indol-5-yl)piperidin-1-yl)-N-methylethan-1-amine]
- pIC50 (human TLR8): < 5.51
- pIC50 (human TLR9): 6.00 to 7.00
- pIC50 (human TLR7): < 4.30

Compound: CCOC(=O)N1CCC(N2CCC(c3ccc4[nH]c(-c5ccnc6[nH]ncc56)c(C(C)C)c4c3)CC2)C(C)C1 (stereo not drawn) [Example 835, ethyl 4-(3-isopropyl-2-(1H-pyrazolo[3,4-b]pyridin-4-yl)-1H-indol-5-yl)-3′-methyl-[1,4′-bipiperidine]-1′-carboxylate]
- pIC50 (human TLR8): 6.00 to 7.00
- pIC50 (human TLR9): 4.30 to 6.00
- pIC50 (human TLR7): 6.00 to 7.00

Compound: CC(C)c1c(-c2cnc3[nH]ccc3c2)[nH]c2ccc(C3CCN(C(=O)CN(C)C)CC3)cc12 [Example 563, 2-(dimethylamino)-1-(4-(3-isopropyl-2-(1H-pyrrolo[2,3-b]pyridin-5-yl)-1H-indol-5-yl)piperidin-1-yl)ethan-1-one]
- pIC50 (human TLR8): 4.30 to 6.00
- pIC50 (human TLR9): 4.30 to 6.00
- pIC50 (human TLR7): 6.00 to 7.00

Compound: CC(C)c1c(-c2cnc3ccnn3c2)[nH]c2ccc(C3CCN(CC(=O)N(C)C)CC3)cc12 [Example 359, 2-(4-(3-isopropyl-2-(pyrazolo[1,5-a]pyrimidin-6-yl)-1H-indol-5-yl)piperidin-1-yl)-N,N-dimethylacetamide]
- pIC50 (human TLR8): < 5.51
- pIC50 (human TLR9): 4.30 to 6.00
- pIC50 (human TLR7): 4.30 to 6.00

More lines, now with the values ahead:

- pIC50 (human TLR8): > 7.00
- pIC50 (human TLR9): 6.00 to 7.00
- pIC50 (human TLR7): > 7.00
Compound: CC(C)c1c(-c2cc(F)c3nccn3c2)[nH]c2ccc(C3CCNCC3)cc12 [Example 118, 8-fluoro-6-(3-isopropyl-5-(piperidin-4-yl)-1H-indol-2-yl)imidazo[1,2-a]pyridine]

- pIC50 (human TLR8): 6.00 to 7.00
- pIC50 (human TLR9): 6.00 to 7.00
- pIC50 (human TLR7): 6.00 to 7.00
Compound: CCc1c(-c2cnc3ncnn3c2)[nH]c2ccc(C3CCNCC3)cc12 [Example 26, 6-(3-ethyl-5-(piperidin-4-yl)-1H-indol-2-yl)-[1,2,4]triazolo[1,5-a]pyrimidine]

- pIC50 (human TLR8): > 7.00
- pIC50 (human TLR9): 6.00 to 7.00
- pIC50 (human TLR7): > 7.00
Compound: CC(C)c1c(-c2ccnc3[nH]ncc23)[nH]c2ccc(C3CCN(C(=O)CCN(C)C)CC3)cc12 [Example 643, 3-(dimethylamino)-1-(4-(3-isopropyl-2-(1H-pyrazolo[3,4-b]pyridin-4-yl)-1H-indol-5-yl)piperidin-1-yl)propan-1-one]

- pIC50 (human TLR8): > 7.00
- pIC50 (human TLR9): 4.30 to 6.00
- pIC50 (human TLR7): > 7.00
Compound: CC(C)c1c(-c2ccnc3[nH]ncc23)[nH]c2ccc(C3CCN(Cc4cn5ccccc5n4)CC3)cc12 [Example 862, 4-(5-(1-(imidazo[1,2-a]pyridin-2-ylmethyl)piperidin-4-yl)-3-isopropyl-1H-indol-2-yl)-1H-pyrazolo[3,4-b]pyridine]

- pIC50 (human TLR8): > 7.00
- pIC50 (human TLR9): 4.30 to 6.00
- pIC50 (human TLR7): > 7.00
Compound: CCOc1cc(-c2[nH]c3ccc(C4CCN(C(=O)CN(C)C)CC4)cc3c2C(C)C)cc2nc(C)nn12 [Example 497, 2-(dimethylamino)-1-(4-(2-(5-ethoxy-2-methyl-[1,2,4]triazolo[1,5-a]pyridin-7-yl)-3-isopropyl-1H-indol-5-yl)piperidin-1-yl)ethan-1-one]

- pIC50 (human TLR8): > 7.00
- pIC50 (human TLR9): 4.30 to 6.00
- pIC50 (human TLR7): > 7.00
Compound: Cc1cc2ncnn2nc1-c1[nH]c2ccc(C3CCN(C(=O)CN(C)C)CC3)cc2c1C(C)C [Example 455, 2-(dimethylamino)-1-(4-(3-isopropyl-2-(7-methyl-[1,2,4]triazolo[1,5-b]pyridazin-6-yl)-1H-indol-5-yl)piperidin-1-yl)ethan-1-one]

- pIC50 (human TLR8): > 7.00
- pIC50 (human TLR9): 4.30 to 6.00
- pIC50 (human TLR7): > 7.00
Compound: CCCN1CCC(c2ccc3[nH]c(-c4ccc5c(c4)COC5=O)c(C(C)C)c3c2)CC1 [Example 953, 5-(3-isopropyl-5-(1-propylpiperidin-4-yl)-1H-indol-2-yl)isobenzofuran-1(3H)-one]
